Measured values from PubChem BioAssay (NCI).
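These data come from cells grown in 96-well plates and exposed to compound for 48 hours at five concentrations. The concentration for 50% growth inhibition is given as GI50. The concentration for full growth arrest is given as TGI.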

What was measured:
Experiment in all cases: NCI-60 cell line screen, 48 h
[1] = tested on: M14 melanoma
[2] = tested on: SK-MEL-28 melanoma
[3] = tested on: SF-295 CNS
[4] = tested on: UO-31 renal
[5] = tested on: OVCAR-5 ovarian
[6] = tested on: SNB-75 CNS
[7] = tested on: NCI/ADR-RES ovarian
[8] = tested on: MDA-MB-468 breast
[9] = tested on: PC-3 prostate
[10] = tested on: HL-60(TB) leukemia
[11] = tested on: OVCAR-3 ovarian
[12] = tested on: CCRF-CEM leukemia
[13] = tested on: SK-MEL-2 melanoma
[14] = tested on: HT29 colon
[15] = tested on: SNB-19 CNS
[16] = tested on: SN12C renal
[17] = tested on: BT-549 breast
[18] = tested on: MALME-3M melanoma
[19] = tested on: HCT-15 colon
[20] = tested on: HS 578T breast
[21] = tested on: RXF 393 renal
[22] = tested on: DU-145 prostate
[23] = tested on: T-47D breast
[24] = tested on: K-562 leukemia
[25] = tested on: RPMI-8226 leukemia
[26] = tested on: A549 NSCLC
[27] = tested on: HCC-2998 colon
[28] = tested on: ACHN renal
[29] = tested on: HOP-62 NSCLC
[30] = tested on: SF-268 CNS
[31] = tested on: U251 CNS
[32] = tested on: NCI-H23 lung
[33] = tested on: KM12 colon
[34] = tested on: UACC-62 melanoma
[35] = tested on: SK-OV-3 ovarian
[36] = tested on: SF-539 CNS
[37] = tested on: MCF7 breast
[38] = tested on: NCI-H522 lung
[39] = tested on: NCI-H226 lung
[40] = tested on: IGROV1 ovarian
[41] = tested on: COLO 205 colon
[42] = tested on: MDA-MB-435
[43] = tested on: HCT-116 colon
[44] = tested on: SR leukemia
[45] = tested on: UACC-257 melanoma
[46] = tested on: LOX IMVI melanoma
[47] = tested on: SK-MEL-5 melanoma
[48] = tested on: MDA-MB-231 breast
[49] = tested on: CAKI-1 renal
[50] = tested on: NCI-H460 lung
[51] = tested on: TK-10 renal
[52] = tested on: A498 renal
[53] = tested on: 786-0 renal
[54] = tested on: EKVX NSCLC
[55] = tested on: HOP-92 NSCLC
[56] = tested on: MOLT-4 leukemia
[57] = tested on: OVCAR-4 ovarian
[58] = tested on: SW-620 colon
[59] = tested on: OVCAR-8 ovarian

## O=C(CNc1nc(-c2ccccc2)cs1)Nc1cccc(Cl)c1
[1]
  GI50: 10.4 µM
  TGI: 42.3 µM
[2]
  GI50: 13 µM
  TGI: 25.9 µM
[3]
  GI50: 5.13 µM
  TGI: 18.1 µM
[4]
  GI50: 2.41 µM
  TGI: 14.8 µM
[5]
  GI50: 13 µM
  TGI: 25.7 µM
[6]
  GI50: 3.22 µM
  TGI: 19.7 µM
[7]
  GI50: 6.39 µM
  TGI: 45.3 µM
[8]
  GI50: 4.01 µM
  TGI: 13.5 µM
[9]
  GI50: 2.86 µM
  TGI: 37.6 µM
[10]
  GI50: 3.53 µM
  TGI: 23.1 µM
[11]
  GI50: 7.14 µM
  TGI: 21.5 µM
[12]
  GI50: 3.76 µM
  TGI: > 100 µM
[13]
  GI50: 11.8 µM
  TGI: 26 µM
[14]
  GI50: 10.1 µM
  TGI: 24 µM
[15]
  GI50: 11 µM
  TGI: 28 µM
[16]
  GI50: 6.3 µM
  TGI: 20.7 µM
[17]
  GI50: 4.82 µM
  TGI: 19 µM
[18]
  GI50: 15 µM
  TGI: 28.3 µM
[19]
  GI50: 4.49 µM
  TGI: 16.1 µM
[20]
  GI50: 7.94 µM
  TGI: > 100 µM
[21]
  GI50: 5.39 µM
  TGI: 18.4 µM
[22]
  GI50: 15.2 µM
  TGI: 37.2 µM
[23]
  GI50: 6.04 µM
  TGI: 22.6 µM
[24]
  GI50: 3.84 µM
  TGI: 26 µM
[25]
  GI50: 4.61 µM
  TGI: > 100 µM
[26]
  GI50: 9.22 µM
  TGI: 62.4 µM
[27]
  GI50: 11.2 µM
  TGI: 23.2 µM
[28]
  GI50: 6.57 µM
  TGI: 19.8 µM
[29]
  GI50: 12.6 µM
  TGI: 36 µM
[30]
  GI50: 7.45 µM
  TGI: 52.3 µM
[31]
  GI50: 5.15 µM
  TGI: 19.5 µM
[32]
  GI50: 9.24 µM
  TGI: 22.8 µM
[33]
  GI50: 6.33 µM
  TGI: 22.5 µM
[34]
  GI50: 3.33 µM
  TGI: 16.6 µM
[35]
  GI50: 14.1 µM
  TGI: 44.9 µM
[36]
  GI50: 11.2 µM
  TGI: 23.3 µM
[37]
  GI50: 5.42 µM
  TGI: 18.3 µM
[38]
  GI50: 4.01 µM
  TGI: 16.1 µM
[39]
  GI50: 10.1 µM
  TGI: 45.4 µM
[40]
  GI50: 5.27 µM
  TGI: 21.5 µM
[41]
  GI50: 15.6 µM
  TGI: 36.5 µM
[42]
  GI50: 12.5 µM
  TGI: 33.5 µM
[43]
  GI50: 4.99 µM
  TGI: 34.1 µM
[44]
  GI50: 3.94 µM
  TGI: > 100 µM
[45]
  GI50: 13 µM
  TGI: 26.9 µM
[46]
  GI50: 3.31 µM
  TGI: 16.4 µM
[47]
  GI50: 7.04 µM
  TGI: 19.8 µM
[48]
  GI50: 4.03 µM
  TGI: 17.8 µM
[49]
  GI50: 3.13 µM
  TGI: 42.9 µM
[50]
  GI50: 10.1 µM
  TGI: 28.6 µM
[51]
  GI50: 14.9 µM
  TGI: 29.7 µM
[52]
  GI50: 11.5 µM
  TGI: 33.5 µM
[53]
  GI50: 13.1 µM
  TGI: 38.3 µM
[54]
  GI50: 3.59 µM
  TGI: 15.3 µM
[55]
  GI50: 2.37 µM
  TGI: 15.1 µM
[56]
  GI50: 3.22 µM
  TGI: 15.9 µM
[57]
  GI50: 6.4 µM
  TGI: 20.9 µM
[58]
  GI50: 12.1 µM
  TGI: 30.3 µM
[59]
  GI50: 7.2 µM
  TGI: 74.6 µM
